Assay results published in patent US10499643B2, “Synergistic herbicidal composition and the method of controlling the growth of undesired plants” (JIANGSU ROTAM CHEMISTRY CO., LTD, priority 2016, dated 2019).

System: gramineous weeds, broadleaf weeds, sedge weeds
Test: Post-emergence test: stem and leaf treatment of potted weeds, fresh weight inhibition rate, synergy by Colby's equation
Type: in vivo
Description: The assessment on the synergistic effect of mixing two or more herbicidal active ingredients is determined based on the Colby's equation as described in “Calculation Synergistic and Antagonistic Response of Herbicide Combinations (Weeds 15/1 (1967), S. R. Colby)”.
Use stem and leaf treatment for potted grown plant (NY/T 1155.4-2006): fill a plastic pot (6 cm height, 9 cm diameter) with a quantity of soil and sow 15 to 20 seeds of monocotyledonous weeds and dicotyledonous weeds in the plastic pot, cover it with 0.5 to 1 cm thick of fine soil and then put it in greenhouse for cultivation. When weeds grow to the 2 to 4 leave stage, conduct the stem and leaf spray treatment with 1 mL herbicidal solution on each pot and repeat four times for each treatment and leave some pots untreated as control group. Keep the treated pots in a greenhouse for cultivation and observe the growing status of target weeds periodically. Conduct the visual test on the target weeds regarding the damage symptoms and growth inhibition effect after 21 days. Weigh up the fresh weight above the ground or plant fresh weight and evaluate the toxicity of the herbicidal formulation on target weeds based on the fresh weight inhibition rate of the target.
Prepare the following three formulations according to specific weight percentages: 1. Pyroxasulfone; 2. […] After that, dilute above formulations with water to obtain diluted formulations.
Conduct visual assessment the damage symptom and growth inhibition status of target weeds after 21 days. Weigh up the fresh weight above the ground and calculate the inhibition rate of fresh weight (%).
The assessment on the synergistic effect of mixing two or more herbicidal active ingredients is determined based on the Colby's equation as described in “Calculation Synergistic and Antagonistic Response of Herbicide Combinations (Weeds 15/1(1967), S. R. Colby)”.
Wherein, X represents Fresh Weight Inhibition Rate of Pyroxasulfone when applied alone at certain application rate against target weeds;

Row | SMILES | inhibition at 1 g/ha (post-emergence, Pyroxasulfone 1 g ai/ha alone, read-out: Herbicidal Activity % Experimental Data) | inhibition at 5 g/ha (post-emergence, Pyroxasulfone 5 g ai/ha alone, read-out: Herbicidal Activity % Experimental Data) | inhibition at 10 g/ha (post-emergence, Pyroxasulfone 10 g ai/ha alone, read-out: Herbicidal Activity % Experimental Data) | inhibition at 25 g/ha (post-emergence, Pyroxasulfone 25 g ai/ha alone, read-out: Herbicidal Activity % Experimental Data) | inhibition at 50 g/ha (post-emergence, Pyroxasulfone 50 g ai/ha alone, read-out: Herbicidal Activity % Experimental Data) | Herbicidal Activity % Experimental Data (Thifensulfuron methyl 1 g ai/ha alone) | Herbicidal Activity % Experimental Data (Thifensulfuron methyl 5 g ai/ha alone) | Herbicidal Activity % Experimental Data (Thifensulfuron methyl 10 g ai/ha alone) | Herbicidal Activity % Experimental Data (Thifensulfuron methyl 25 g ai/ha alone) | Herbicidal Activity % Experimental Data (Thifensulfuron methyl 50 g ai/ha alone)
1 | Cn1nc(C(F)(F)F)c(CS(=O)(=O)C2=NOC(C)(C)C2)c1OC(F)F [Pyroxasulfone, 3-[5-(difluoromethoxy)-1-methyl-3-(trifluoromethyl)pyrazol-4-ylmethylsulfonyl]-4,5-dihydro-5,5-dimethyl-1,2-oxazole] | 11% | 22% | 40% | 49% | 63% |  |  |  |  | 
2 | COC(=O)c1sccc1S(=O)(=O)NC(=O)Nc1nc(C)nc(OC)n1 [Thifensulfuron methyl] |  |  |  |  |  | 0% | 15.5% | 31.2% | 55.1% | 60.3%
